Source: PubChem BioAssay (NCI)
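How tested: cells in 96-well plates exposed to compound for 48 hours at five concentrations. Here, GI50 denotes the concentration required for 50% inhibition of growth. At the TGI there is no net growth.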

Columns and labels:
Experiment in all cases: growth of human tumour cells (NCI), 48 h
MDA-MB-435 = test system: MDA-MB-435
HOP-92 NSCLC = test system: HOP-92 NSCLC
COLO 205 colon = test system: COLO 205 colon
SW-620 colon = test system: SW-620 colon
U251 CNS = test system: U251 CNS
ACHN renal = test system: ACHN renal
UACC-62 melanoma = test system: UACC-62 melanoma
SK-MEL-5 melanoma = test system: SK-MEL-5 melanoma
NCI-H460 lung = test system: NCI-H460 lung
OVCAR-3 ovarian = test system: OVCAR-3 ovarian
TK-10 renal = test system: TK-10 renal
SN12C renal = test system: SN12C renal
SK-MEL-2 melanoma = test system: SK-MEL-2 melanoma
CCRF-CEM leukemia = test system: CCRF-CEM leukemia
IGROV1 ovarian = test system: IGROV1 ovarian
A549 NSCLC = test system: A549 NSCLC
MALME-3M melanoma = test system: MALME-3M melanoma
NCI-H23 lung = test system: NCI-H23 lung
CAKI-1 renal = test system: CAKI-1 renal
NCI-H226 lung = test system: NCI-H226 lung
NCI/ADR-RES ovarian = test system: NCI/ADR-RES ovarian
BT-549 breast = test system: BT-549 breast
SNB-75 CNS = test system: SNB-75 CNS
MOLT-4 leukemia = test system: MOLT-4 leukemia
OVCAR-4 ovarian = test system: OVCAR-4 ovarian
RPMI-8226 leukemia = test system: RPMI-8226 leukemia
SNB-19 CNS = test system: SNB-19 CNS
SK-OV-3 ovarian = test system: SK-OV-3 ovarian
M14 melanoma = test system: M14 melanoma
HT29 colon = test system: HT29 colon
KM12 colon = test system: KM12 colon
786-0 renal = test system: 786-0 renal
OVCAR-8 ovarian = test system: OVCAR-8 ovarian
SF-295 CNS = test system: SF-295 CNS
HCC-2998 colon = test system: HCC-2998 colon
OVCAR-5 ovarian = test system: OVCAR-5 ovarian
PC-3 prostate = test system: PC-3 prostate
K-562 leukemia = test system: K-562 leukemia
SF-539 CNS = test system: SF-539 CNS
EKVX NSCLC = test system: EKVX NSCLC
SR leukemia = test system: SR leukemia
MDA-MB-231 breast = test system: MDA-MB-231 breast
MCF7 breast = test system: MCF7 breast
NCI-H522 lung = test system: NCI-H522 lung
HS 578T breast = test system: HS 578T breast
HL-60(TB) leukemia = test system: HL-60(TB) leukemia
SF-268 CNS = test system: SF-268 CNS
HCT-116 colon = test system: HCT-116 colon
UO-31 renal = test system: UO-31 renal
SK-MEL-28 melanoma = test system: SK-MEL-28 melanoma
T-47D breast = test system: T-47D breast
HCT-15 colon = test system: HCT-15 colon
UACC-257 melanoma = test system: UACC-257 melanoma
DU-145 prostate = test system: DU-145 prostate
A498 renal = test system: A498 renal
LOX IMVI melanoma = test system: LOX IMVI melanoma
HOP-62 NSCLC = test system: HOP-62 NSCLC

CCN(CC)CCOc1ccc(C(=C(c2ccccc2)C2CCCC2)c2ccc(OCCN(CC)CC)cc2)cc1
GI50 (MDA-MB-435): 3.19 µM
TGI (MDA-MB-435): 7.45 µM
GI50 (HOP-92 NSCLC): 1330 nM
TGI (HOP-92 NSCLC): 6.89 µM
GI50 (COLO 205 colon): 3.2 µM
TGI (COLO 205 colon): 7.63 µM
GI50 (SW-620 colon): 5.05 µM
TGI (SW-620 colon): > 16.3 µM
GI50 (U251 CNS): 3.85 µM
TGI (U251 CNS): 12.5 µM
GI50 (ACHN renal): > 16.3 µM
TGI (ACHN renal): > 16.3 µM
GI50 (UACC-62 melanoma): 3.92 µM
TGI (UACC-62 melanoma): 11.1 µM
GI50 (SK-MEL-5 melanoma): 5.31 µM
TGI (SK-MEL-5 melanoma): > 16.3 µM
GI50 (NCI-H460 lung): 4.84 µM
TGI (NCI-H460 lung): > 16.3 µM
GI50 (OVCAR-3 ovarian): 3.07 µM
TGI (OVCAR-3 ovarian): 6.54 µM
GI50 (TK-10 renal): > 16.3 µM
TGI (TK-10 renal): > 16.3 µM
GI50 (SN12C renal): 5.28 µM
TGI (SN12C renal): > 16.3 µM
GI50 (SK-MEL-2 melanoma): 5.49 µM
TGI (SK-MEL-2 melanoma): > 16.3 µM
GI50 (CCRF-CEM leukemia): 4.52 µM
TGI (CCRF-CEM leukemia): > 16.3 µM
GI50 (IGROV1 ovarian): 3.49 µM
TGI (IGROV1 ovarian): 7.66 µM
GI50 (A549 NSCLC): 6.46 µM
TGI (A549 NSCLC): > 16.3 µM
GI50 (MALME-3M melanoma): 3.57 µM
TGI (MALME-3M melanoma): 10.3 µM
GI50 (NCI-H23 lung): 5.64 µM
TGI (NCI-H23 lung): > 16.3 µM
GI50 (CAKI-1 renal): > 16.3 µM
TGI (CAKI-1 renal): > 16.3 µM
GI50 (NCI-H226 lung): 6.58 µM
TGI (NCI-H226 lung): > 16.3 µM
GI50 (NCI/ADR-RES ovarian): > 16.3 µM
TGI (NCI/ADR-RES ovarian): > 16.3 µM
GI50 (BT-549 breast): 2270 nM
TGI (BT-549 breast): 6.04 µM
GI50 (SNB-75 CNS): 4.58 µM
TGI (SNB-75 CNS): > 16.3 µM
GI50 (MOLT-4 leukemia): 4.47 µM
TGI (MOLT-4 leukemia): 13.3 µM
GI50 (OVCAR-4 ovarian): 5.35 µM
TGI (OVCAR-4 ovarian): > 16.3 µM
GI50 (RPMI-8226 leukemia): 2770 nM
TGI (RPMI-8226 leukemia): 10.7 µM
GI50 (SNB-19 CNS): 4.96 µM
TGI (SNB-19 CNS): > 16.3 µM
GI50 (SK-OV-3 ovarian): 7.95 µM
TGI (SK-OV-3 ovarian): > 16.3 µM
GI50 (M14 melanoma): 7.22 µM
TGI (M14 melanoma): > 16.3 µM
GI50 (HT29 colon): 3.82 µM
TGI (HT29 colon): 10.4 µM
GI50 (KM12 colon): 2810 nM
TGI (KM12 colon): 5.28 µM
GI50 (786-0 renal): 12.2 µM
TGI (786-0 renal): > 16.3 µM
GI50 (OVCAR-8 ovarian): 6.88 µM
TGI (OVCAR-8 ovarian): > 16.3 µM
GI50 (SF-295 CNS): 5.77 µM
TGI (SF-295 CNS): > 16.3 µM
GI50 (HCC-2998 colon): 4.62 µM
TGI (HCC-2998 colon): > 16.3 µM
GI50 (OVCAR-5 ovarian): 6.13 µM
TGI (OVCAR-5 ovarian): > 16.3 µM
GI50 (PC-3 prostate): 6.16 µM
TGI (PC-3 prostate): > 16.3 µM
GI50 (K-562 leukemia): 5.57 µM
TGI (K-562 leukemia): > 16.3 µM
GI50 (SF-539 CNS): 5.51 µM
TGI (SF-539 CNS): > 16.3 µM
GI50 (EKVX NSCLC): 7.53 µM
TGI (EKVX NSCLC): > 16.3 µM
GI50 (SR leukemia): 3.29 µM
TGI (SR leukemia): 7.88 µM
GI50 (MDA-MB-231 breast): 4.57 µM
TGI (MDA-MB-231 breast): 15.6 µM
GI50 (MCF7 breast): 2530 nM
TGI (MCF7 breast): 5.01 µM
GI50 (NCI-H522 lung): 6.3 µM
TGI (NCI-H522 lung): > 16.3 µM
GI50 (HS 578T breast): 3.64 µM
TGI (HS 578T breast): 12.8 µM
GI50 (HL-60(TB) leukemia): 3.13 µM
TGI (HL-60(TB) leukemia): 7.14 µM
GI50 (SF-268 CNS): 5.35 µM
TGI (SF-268 CNS): > 16.3 µM
GI50 (HCT-116 colon): 4.89 µM
TGI (HCT-116 colon): > 16.3 µM
GI50 (UO-31 renal): > 16.3 µM
TGI (UO-31 renal): > 16.3 µM
GI50 (SK-MEL-28 melanoma): 6.5 µM
TGI (SK-MEL-28 melanoma): > 16.3 µM
GI50 (T-47D breast): 5.6 µM
TGI (T-47D breast): > 16.3 µM
GI50 (HCT-15 colon): > 16.3 µM
TGI (HCT-15 colon): > 16.3 µM
GI50 (UACC-257 melanoma): 5.09 µM
TGI (UACC-257 melanoma): > 16.3 µM
GI50 (DU-145 prostate): 7.97 µM
TGI (DU-145 prostate): > 16.3 µM
GI50 (A498 renal): > 16.3 µM
TGI (A498 renal): > 16.3 µM
GI50 (LOX IMVI melanoma): 4.45 µM
TGI (LOX IMVI melanoma): 14.7 µM
GI50 (HOP-62 NSCLC): 9.41 µM
TGI (HOP-62 NSCLC): > 16.3 µM
